# Measured values published in patent publication US9688661B2, “Substituted pyrroles active as kinases inhibitors” (NERVIANO MEDICAL SCIENCES S.R.L., priority 2012, dated 2017).
# Like-named read-outs stand apart in the source and are kept apart here.
# Assays:
# JAK1 kinase domain = JAK1 kinase domain (Homo sapiens (Human), UniProt P23458); assay: Biochemical assay for inhibitors of JAK kinase activity, JAK1; conditions: preactivated JAK1 kinase domain 2.5 nM, 100 μM ATP
# Description: (§1) Specific JAK2, JAK1 or JAK3 peptide substrates are trans-phosphorylated by JAK kinases in the presence of ATP traced with 33P-γ-ATP. At the end of the phosphorylation reaction, the unreacted ATP, cold and radioactive, is captured by an excess of dowex ion exchange resin that eventually settles by gravity to the bottom of the reaction plate. The supernatant is subsequently withdrawn and transferred into a counting plate that is then evaluated by β-counting.
# (§2) 500 g of wet resin (SIGMA, custom prepared resin DOWEX 1×8 200-400 mesh, 2.5 Kg) are weighed out and diluted 2 to 1 in 150 mM sodium formate, pH 3.00. The resin is allowed to settle down overnight and then the supernatant is discarded. After three washes as above over a couple of days, the resin is allowed to settle and two volumes (with respect to the resin volume) of 150 mM sodium formate buffer are added.
# (§3) Kinase buffer was composed of 50 mM HEPES pH 7.5 containing 10 mM MgCl2, 2.5 mM DTT, 10 μM Na3VO4 and 0.2 mg/mL BSA.
# Assays were performed with the JAK1 kinase domain (residues 861-1152 of the 1154 amino acid long full-length sequence, accession number P23458 of UniProtKB/Swiss-Prot database).
# The JAK1 kinase domain was preactivated with ATP for 1 h at 28° C. in order to obtain a linear kinetic.
# (§4) The peptidic substrate was purchased from American Peptide Company (Sunnyvale, Calif.).
# (§5) Data are analyzed by Symix Assay Explorer software (Symix Technologies Inc.) that provides sigmoidal fitting algorithm of the 8 points dilutions curves for IC50 determination.
# JAK2 kinase domain = JAK2 kinase domain (Homo sapiens (Human), UniProt O60674); assay: Biochemical assay for inhibitors of JAK kinase activity, JAK2; conditions: JAK2 kinase domain 1 nM, 60 μM ATP
# Sequence of JAK2 kinase domain (O60674 849-1124): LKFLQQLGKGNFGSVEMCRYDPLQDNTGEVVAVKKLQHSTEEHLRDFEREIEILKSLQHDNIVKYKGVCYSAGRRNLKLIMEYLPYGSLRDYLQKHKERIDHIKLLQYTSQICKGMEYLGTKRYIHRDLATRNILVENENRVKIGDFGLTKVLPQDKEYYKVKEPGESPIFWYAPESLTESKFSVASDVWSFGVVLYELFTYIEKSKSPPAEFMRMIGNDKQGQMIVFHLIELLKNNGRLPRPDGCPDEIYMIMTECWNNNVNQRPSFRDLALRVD
# Description: as §1, §2, §3, §4, §5
# [1] = tested on: JAK2 dependent human megakaryoblastic leukemia cell line SET-2; assay: Cell proliferation assay, SET-2; type: cell-based; conditions: SET-2 cells, 72 hours, CellTiter-Glo
# [2] = tested on: JAK2 independent human chronic myelogenous leukaemia cell line K562; assay: Cell proliferation assay, K562; type: cell-based; conditions: K562 cells, 72 hours, CellTiter-Glo, read-out: IC50 K-562
# TYK2 kinase domain = TYK2 kinase domain (Homo sapiens (Human), UniProt P29597); assay: Biochemical assay for inhibitors of JAK kinase activity, TYK2; conditions: TYK2 kinase domain 3 nM, 31 μM ATP
# Sequence of TYK2 kinase domain (P29597 833-1187): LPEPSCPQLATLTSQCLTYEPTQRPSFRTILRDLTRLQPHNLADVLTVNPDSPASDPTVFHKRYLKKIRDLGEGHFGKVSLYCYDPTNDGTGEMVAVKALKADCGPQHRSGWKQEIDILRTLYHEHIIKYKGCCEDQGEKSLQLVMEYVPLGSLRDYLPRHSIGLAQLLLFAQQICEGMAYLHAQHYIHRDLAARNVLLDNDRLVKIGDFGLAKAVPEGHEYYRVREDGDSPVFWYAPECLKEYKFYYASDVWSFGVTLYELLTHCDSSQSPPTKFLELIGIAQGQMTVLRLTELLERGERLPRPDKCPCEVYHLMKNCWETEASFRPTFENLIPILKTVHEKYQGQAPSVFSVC
# Description: as §1, §2, §3, §4, §5
# [3] = tested on: IL-2 dependent human T lymphoma cell line DERL-7; assay: Cell proliferation assay, DERL-7; type: cell-based; conditions: DERL-7 cells, 20 ng/ml human IL-2, 72 hours, CellTiter-Glo
# Description: the JAK2 dependent human megakaryoblastic leukemia cell line SET-2 (DSMZ, Braunschweig GERMANY), and JAK2 independent human chronic myelogenous leukaemia cell line K562 (ECACC, Wiltshire, UK) were cultured in RPMI-1640 medium-Glutamax (Gibco BRL, Gaithesburg, Md., USA), supplemented with 10% fetal bovine serum (FBS) at 37° C. and 5% CO2. The IL-2 dependent human T lymphoma cell line DERL-7 (DSMZ, Braunschweig GERMANY) was used to test the activity of compounds in cells on JAK1/JAK3 kinases activated by IL-2. The DERL-7 cell lines were cultured in RPMI-1640 medium-Glutamax (Gibco BRL, Gaithesburg, Md., USA), supplemented with 20% FBS and 20 ng/ml of human IL-2 (Sigma-Aldrich, St. Louis, Mo., USA).
# Approximately 5×10^3 cells were plated into 384 microtiter plate wells in 50 μL of growth media with different concentrations of inhibitors. The cells were incubated at 37° C. and 5% CO2 for 72 hours, than the plates were processed using CellTiter-Glo assay (Promega, Madison, Wis., USA) following the manufacturer's instruction. Briefly 25 μL/well reagent solution are added to each wells and after 5 minutes shacking micro-plates are read by Envision luminometer (PerkinElmer, Waltham, Mass., USA).
# as §5
# Sequence of JAK1 kinase domain (P23458 861-1152): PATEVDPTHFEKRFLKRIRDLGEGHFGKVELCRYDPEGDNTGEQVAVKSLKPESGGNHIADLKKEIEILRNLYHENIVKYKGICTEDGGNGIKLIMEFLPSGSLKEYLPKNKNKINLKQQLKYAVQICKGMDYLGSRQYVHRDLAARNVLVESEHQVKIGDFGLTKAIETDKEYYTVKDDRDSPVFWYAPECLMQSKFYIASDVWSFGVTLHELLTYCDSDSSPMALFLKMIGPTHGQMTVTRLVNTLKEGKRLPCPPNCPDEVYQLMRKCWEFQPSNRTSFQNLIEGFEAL
smiles,measurement,setting,value
"CCc1ccc(C(F)(F)F)cc1-c1[nH]c(-c2cc(NC)ncn2)cc1C(N)=O [compd 219, 2-[2-Ethyl-5-(trifluoromethyl)phenyl]-5-[6-(methylamino)pyrimidin-4-yl]-1H-pyrrole-3-carboxamide]",IC50,JAK1 kinase domain,0.014 µM
same,IC50,JAK2 kinase domain,0.004 µM
same,IC50,[1],0.27 µM
same,IC50,[2],> 10 µM
same,IC50,TYK2 kinase domain,0.046 µM
same,IC50,[3]; DERL7,0.392 µM
"CCc1ccc(C(F)(F)F)cc1-c1[nH]c(-c2ncnc3[nH]ccc23)cc1C(=O)NC [compd 323, 2-[2-Ethyl-5-(trifluoromethyl)phenyl]-N-methyl-5-(7H-pyrrolo[2,3-d]pyrimidin-4-yl)-1H-pyrrole-3-carboxamide]",IC50,JAK1 kinase domain,0.006 µM
same,IC50,JAK2 kinase domain,0.003 µM
same,IC50,[1],0.22 µM
same,IC50,[2],> 10 µM
same,IC50,TYK2 kinase domain,0.022 µM
same,IC50,[3]; DERL7,0.51 µM
"CCc1ccc(Cl)cc1-c1[nH]c(-c2ncnc3[nH]ccc23)cc1C(N)=O [compd 199, 2-(5-Chloro-2-ethylphenyl)-5-(7H-pyrrolo[2,3-d]pyrimidin-4-yl)-1H-pyrrole-3-carboxamide]",IC50,JAK1 kinase domain,0.007 µM
same,IC50,JAK2 kinase domain,0.001 µM
same,IC50,[1],0.1 µM
same,IC50,[2],> 10 µM
same,IC50,TYK2 kinase domain,0.003 µM
same,IC50,[3]; DERL7,0.194 µM
"CCc1ccc(Cl)cc1-n1cc(-c2ncnc3[nH]ccc23)cc1C(N)=O [compd 237, 1-(5-Chloro-2-ethylphenyl)-4-(7H-pyrrolo[2,3-d]pyrimidin-4-yl)-1H-pyrrole-2-carboxamide]",IC50,JAK2 kinase domain,0.001 µM
same,IC50,[1],0.03 µM
same,IC50,[2],> 10 µM
same,IC50,[3]; DERL7,0.018 µM
"CCc1ccc(Cl)cc1-c1[nH]c(-c2cc(NC)ncn2)cc1C(=O)NC [compd 302, 2-(5-Chloro-2-ethylphenyl)-N-methyl-5-[6-(methylamino)pyrimidin-4-yl]-1H-pyrrole-3-carboxamide]",IC50,JAK1 kinase domain,0.001 µM
same,IC50,JAK2 kinase domain,0.001 µM
same,IC50,[1],0.13 µM
same,IC50,[2],6.61 µM
same,IC50,TYK2 kinase domain,0.01 µM
same,IC50,[3]; DERL7,0.469 µM
"CCc1ccc(Cl)cc1-c1[nH]c(-c2cc(NC)ncn2)cc1C(N)=O [compd 198, 2-(5-Chloro-2-ethylphenyl)-5-[6-(methylamino)pyrimidin-4-yl]-1H-pyrrole-3-carboxamide]",IC50,JAK1 kinase domain,0.008 µM
same,IC50,JAK2 kinase domain,0.002 µM
same,IC50,[1],0.19 µM
same,IC50,[2],> 10 µM
same,IC50,TYK2 kinase domain,0.023 µM
same,IC50,[3]; DERL7,0.17 µM
"CCc1ccc(C(F)(F)F)cc1-c1[nH]c(-c2cc(N)ncn2)cc1C(=O)NC [compd 321, 5-(6-Aminopyrimidin-4-yl)-2-[2-ethyl-5-(trifluoromethyl)phenyl]-N-methyl-1H-pyrrole-3-carboxamide]",IC50,JAK1 kinase domain,0.009 µM
same,IC50,JAK2 kinase domain,0.003 µM
same,IC50,[1],0.25 µM
same,IC50,[2],> 10 µM
same,IC50,TYK2 kinase domain,0.038 µM
same,IC50,[3]; DERL7,0.548 µM
"Cc1ccc(Cl)cc1-n1cc(-c2ncnc3c2CCN3)cc1C(N)=O [compd 234, 1-(5-Chloro-2-methylphenyl)-4-(6,7-dihydro-5H-pyrrolo[2,3-d]pyrimidin-4-yl)-1H-pyrrole-2-carboxamide]",IC50,JAK1 kinase domain,0.008 µM
same,IC50,JAK2 kinase domain,0.006 µM
same,IC50,[1],0.26 µM
same,IC50,[2],> 10 µM
same,IC50,TYK2 kinase domain,0.008 µM
same,IC50,[3]; DERL7,0.208 µM
"CCc1ccc(Cl)cc1-n1cc(-c2ncnc3[nH]ccc23)cc1C#N [compd 68, 1-(5-Chloro-2-ethylphenyl)-4-(7H-pyrrolo[2,3-d]pyrimidin-4-yl)-1H-pyrrole-2-carbonitrile]",IC50,JAK1 kinase domain,0.014 µM
same,IC50,JAK2 kinase domain,0.006 µM
same,IC50,[1],0.34 µM
same,IC50,[2],4.13 µM
same,IC50,TYK2 kinase domain,0.012 µM
same,IC50,[3]; DERL7,0.332 µM
"CCc1ccc(Cl)cc1-c1[nH]c(-c2cc(NC)ncn2)cc1C#N [compd 10, 2-(5-Chloro-2-ethylphenyl)-5-[6-(methylamino)pyrimidin-4-yl]-H-pyrrole-3-carbonitrile]",IC50,[3]; read-out: DERL7 IC50,0.78 µM
"CCc1ccc(C(F)(F)F)cc1-c1[nH]c(-c2ncnc3[nH]ccc23)cc1C(N)=O [compd 220, 2-[2-Ethyl-5-(trifluoromethyl)phenyl]-5-(7H-pyrrolo[2,3-d]pyrimidin-4-yl)-1H-pyrrole-3-carboxamide]",IC50,JAK1 kinase domain,0.019 µM
same,IC50,JAK2 kinase domain,0.002 µM
same,IC50,[1],0.15 µM
same,IC50,[2],6.87 µM
same,IC50,TYK2 kinase domain,0.02 µM
same,IC50,[3]; DERL7,0.591 µM
"CCc1ccc(Cl)cc1-c1cc(-c2ncnc3[nH]ccc23)[nH]c1C(=O)NC [compd 130, 3-(5-Chloro-2-ethylphenyl)-N-methyl-5-(7H-pyrrolo[2,3-d]pyrimidin-4-yl)-1H-pyrrole-2-carboxamide]",IC50,JAK1 kinase domain,0.011 µM
same,IC50,JAK2 kinase domain,0.003 µM
same,IC50,[1],0.4 µM
same,IC50,[2],> 10 µM
same,IC50,TYK2 kinase domain,0.007 µM
same,IC50,[3]; DERL7,1.6 µM
"CCc1ccc(Cl)cc1-c1cc(-c2ncnc3[nH]ccc23)[nH]c1C(N)=O [compd 124, 3-(5-Chloro-2-ethylphenyl)-5-(7H-pyrrolo[2,3-d]pyrimidin-4-yl)-1H-pyrrole-2-carboxamide]",IC50,JAK1 kinase domain,0.018 µM
same,IC50,JAK2 kinase domain,0.004 µM
same,IC50,[1],0.33 µM
same,IC50,[2],9.66 µM
same,IC50,TYK2 kinase domain,0.009 µM
same,IC50,[3]; DERL7,1.07 µM
"CCc1ccc(C(F)(F)F)cc1-c1cc(-c2ncnc3[nH]ccc23)[nH]c1C(N)=O [compd 125, 3-[2-Ethyl-5-(trifluoromethyl)phenyl]-5-(7H-pyrrolo[2,3-d]pyrimidin-4-yl)-1H-pyrrole-2-carboxamide]",IC50,JAK1 kinase domain,0.019 µM
same,IC50,JAK2 kinase domain,0.006 µM
same,IC50,[1],0.3 µM
same,IC50,[2],> 10 µM
same,IC50,TYK2 kinase domain,0.032 µM
same,IC50,[3]; DERL7,1.07 µM
"Cc1ccc(Cl)cc1-n1cc(-c2ncnc3[nH]ccc23)cc1C(N)=O [compd 229, 1-(5-Chloro-2-methylphenyl)-4-(7H-pyrrolo[2,3-d]pyrimidin-4-yl)-1H-pyrrole-2-carboxamide]",IC50,JAK1 kinase domain,0.003 µM
same,IC50,JAK2 kinase domain,0.001 µM
same,IC50,[1],0.08 µM
same,IC50,[2],> 10 µM
same,IC50,TYK2 kinase domain,0.002 µM
same,IC50,[3]; DERL7,0.463 µM
"CCc1ccc(C(F)(F)F)cc1-c1[nH]c(-c2cc(NC)ncn2)cc1C(=O)NC [compd 322, 2-[2-Ethyl-5-(trifluoromethyl)phenyl]-N-methyl-5-[6-(methylamino)pyrimidin-4-yl]-1H-pyrrole-3-carboxamide]",IC50,JAK1 kinase domain,0.013 µM
same,IC50,JAK2 kinase domain,0.004 µM
same,IC50,[1],0.22 µM
same,IC50,[2],2.8 µM
same,IC50,[3]; DERL7,0.246 µM
"Cc1ccc(Cl)cc1-c1cn(-c2ncnc3[nH]ccc23)cc1C(N)=O [compd 270, 4-(5-Chloro-2-methylphenyl)-1-(7H-pyrrolo[2,3-d]pyrimidin-4-yl)-1H-pyrrole-3-carboxamide]",IC50,JAK1 kinase domain,0.085 µM
same,IC50,JAK2 kinase domain,0.017 µM
same,IC50,[1],0.55 µM
same,IC50,[2],1.89 µM
same,IC50,TYK2 kinase domain,0.043 µM
same,IC50,[3]; DERL7,1.79 µM
"NC(=O)c1cc(-c2ncnc3[nH]ccc23)cn1-c1cc(C(F)(F)F)ccc1Cl [compd 244, 1-[2-Chloro-5-(trifluoromethyl)phenyl]-4-(7H-pyrrolo[2,3-d]pyrimidin-4-yl)-1H-pyrrole-2-carboxamide]",IC50,JAK1 kinase domain,0.004 µM
same,IC50,JAK2 kinase domain,0.001 µM
same,IC50,[1],0.06 µM
same,IC50,[2],7.23 µM
same,IC50,TYK2 kinase domain,0.003 µM
same,IC50,[3]; DERL7,0.146 µM
"CCc1ccc(Cl)cc1-c1[nH]c(-c2cc(N)ncn2)cc1C(N)=O [compd 197, 5-(6-Aminopyrimidin-4-yl)-2-(5-chloro-2-ethylphenyl)-1H-pyrrole-3-carboxamide]",IC50,JAK1 kinase domain,0.008 µM
same,IC50,JAK2 kinase domain,0.001 µM
same,IC50,[1],0.15 µM
same,IC50,[2],> 10 µM
same,IC50,TYK2 kinase domain,0.01 µM
same,IC50,[3]; DERL7,0.257 µM
"CCc1ccc(Cl)cc1-n1cc(-c2ncnc3c2CCN3)cc1C(N)=O [compd 241, 1-(5-Chloro-2-ethylphenyl)-4-(6,7-dihydro-5H-pyrrolo[2,3-d]pyrimidin-4-yl)-1H-pyrrole-2-carboxamide]",IC50,JAK1 kinase domain,0.008 µM
same,IC50,JAK2 kinase domain,0.005 µM
same,IC50,[1],0.31 µM
same,IC50,[2],> 10 µM
same,IC50,TYK2 kinase domain,0.016 µM
same,IC50,[3]; DERL7,1.3 µM
